Measurements from ChEMBL document CHEMBL1157972, “Biotransformation of (-)-ambrox by cell suspension cultures of Actinidia deliciosa” (J Nat Prod, 2006).
Active and inactive are the calls of the source. The calls are words filed in the database; no cut-off is given here.

The compounds below were run against Thymidine phosphorylase (Escherichia coli K-12) (UniProt P07650) (assay: (§1) Inhibition of Escherichia coli thymidine phosphorylase by spectrophotometry).
Thymidine phosphorylase (Escherichia coli K-12), sequence (P07650 whole entry, looked up): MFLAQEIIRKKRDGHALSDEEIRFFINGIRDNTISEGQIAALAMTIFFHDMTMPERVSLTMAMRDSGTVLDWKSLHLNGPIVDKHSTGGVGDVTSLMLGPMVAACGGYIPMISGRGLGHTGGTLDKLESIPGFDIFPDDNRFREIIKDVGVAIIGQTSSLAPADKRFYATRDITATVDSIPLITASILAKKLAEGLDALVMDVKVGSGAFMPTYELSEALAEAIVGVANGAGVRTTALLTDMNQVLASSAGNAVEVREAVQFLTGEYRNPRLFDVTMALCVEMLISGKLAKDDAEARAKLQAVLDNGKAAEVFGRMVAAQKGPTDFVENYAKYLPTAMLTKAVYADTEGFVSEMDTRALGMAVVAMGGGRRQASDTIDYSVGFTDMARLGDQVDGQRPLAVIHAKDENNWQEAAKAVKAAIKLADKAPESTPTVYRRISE

Structure (SMILES)	Activity
CC1(C)[C@@H](O)CC[C@]2(C)[C@H]3CCO[C@]3(C)CC[C@@H]12	inactive
CC1(C)CC[C@H](O)[C@]2(C)[C@H]3CCO[C@]3(C)CC[C@@H]12	inactive
CC1(C)CCC[C@]2(C)[C@H]3CCO[C@]3(C)CC[C@@H]12	inactive

The next lines start with the values.

Activity	Structure (SMILES)
inactive	CC1(C)[C@@H](O)C[C@H](O)[C@]2(C)[C@H]3CCO[C@]3(C)CC[C@@H]12
inactive	CC1(C)C(=O)CC[C@]2(C)[C@H]3CCO[C@]3(C)CC[C@@H]12

These compounds were tested against Thymidine phosphorylase (Escherichia coli K-12, UniProt P07650) (assay: as §1).
Thymidine phosphorylase, sequence (P07650 whole entry): as the sequence (P07650 whole entry, looked up) above

IC50 [µM]	Structure (SMILES)
72	CC1(C)CC[C@H](O)[C@]2(C)[C@H]3CCO[C@]3(C)C[C@@H](O)[C@@H]12
81.4	CC1(C)[C@@H](O)CC[C@]2(C)[C@H]3CCO[C@]3(C)C[C@@H](O)[C@@H]12
